Test results taken from the kinase profiling compilation of Christmann-Franck et al. (2016).

What was measured:
Assay in all cases: KINOMEscan competition binding
Conditions in all cases: compound 10.0 µM
ABL2 (human) = ABL2 (human) (UniProt P42684)
AXL (human) = AXL (human) (UniProt P30530)
BLK (human) = BLK (human) (UniProt P51451)
BMPR1B (human) = BMPR1B (human) (UniProt O00238)
BRSK2 (human) = BRSK2 (human) (UniProt Q8IWQ3)
CDK9 (human) = CDK9 (human) (UniProt P50750)
CIT (human) = CIT (human) (UniProt O14578)
CLK3 (human) = CLK3 (human) (UniProt P49761)
CSNK1G2 (human) = CSNK1G2 (human) (UniProt P78368)
EPHA3 (human) = EPHA3 (human) (UniProt P29320)
ERBB2 (human) = ERBB2 (human) (UniProt P04626)
GAK (human) = GAK (human) (UniProt O14976)
HCK (human) = HCK (human) (UniProt P08631)
INSRR (human) = INSRR (human) (UniProt P14616)
IRAK3 (human) = IRAK3 (human) (UniProt Q9Y616)
MAP2K2 (human) = MAP2K2 (human) (UniProt P36507)
MAP4K4 (human) = MAP4K4 (human) (UniProt O95819)
MAP4K5 (human) = MAP4K5 (human) (UniProt Q9Y4K4)
MAPK9 (human) = MAPK9 (human) (UniProt P45984)
MINK1 (human) = MINK1 (human) (UniProt Q8N4C8)
MYLK4 (human) = MYLK4 (human) (UniProt Q86YV6)
NTRK3 (human) = NTRK3 (human) (UniProt Q16288)
PAK7 (human) = PAK7 (human) (UniProt Q9P286)
PKN1 (human) = PKN1 (human) (UniProt Q16512)
PRKCE (human) = PRKCE (human) (UniProt Q02156)
PRKCQ (human) = PRKCQ (human) (UniProt Q04759)
PRKD3 (human) = PRKD3 (human) (UniProt O94806)
PRKG2 (human) = PRKG2 (human) (UniProt Q13237)
PRKX (human) = PRKX (human) (UniProt P51817)
RPS6KA3 KD1 (human) = RPS6KA3 KD1 (human) (UniProt P51812)
SRC (human) = SRC (human) (UniProt P12931)
SRMS (human) = SRMS (human) (UniProt Q9H3Y6)
SRPK2 (human) = SRPK2 (human) (UniProt P78362)
STK17B (human) = STK17B (human) (UniProt O94768)
STK24 (human) = STK24 (human) (UniProt Q9Y6E0)
STK33 (human) = STK33 (human) (UniProt Q9BYT3)
TEC (human) = TEC (human) (UniProt P42680)
WEE2 (human) = WEE2 (human) (UniProt P0C1S8)
YES1 (human) = YES1 (human) (UniProt P07947)
[1] = tested on: ABL1 (human), P00519 [M351T]

Chain of SRC (human) (P12931 whole entry, looked up): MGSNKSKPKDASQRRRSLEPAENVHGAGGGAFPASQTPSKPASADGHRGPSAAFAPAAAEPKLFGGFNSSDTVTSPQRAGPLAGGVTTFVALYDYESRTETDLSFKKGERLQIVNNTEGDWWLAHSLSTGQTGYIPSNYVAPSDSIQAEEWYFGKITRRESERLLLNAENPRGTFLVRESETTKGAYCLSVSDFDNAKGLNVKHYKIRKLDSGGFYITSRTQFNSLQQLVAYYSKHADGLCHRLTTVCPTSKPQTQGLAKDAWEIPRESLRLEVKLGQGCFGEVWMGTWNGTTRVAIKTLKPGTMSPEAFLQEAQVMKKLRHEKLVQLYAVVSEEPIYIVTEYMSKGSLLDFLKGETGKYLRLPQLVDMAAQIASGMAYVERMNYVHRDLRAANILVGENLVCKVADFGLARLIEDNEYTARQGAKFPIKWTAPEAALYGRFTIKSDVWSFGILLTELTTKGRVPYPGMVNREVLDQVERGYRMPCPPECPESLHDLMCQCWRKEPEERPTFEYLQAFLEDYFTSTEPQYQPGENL
Chain of SRMS (human) (Q9H3Y6 whole entry, looked up): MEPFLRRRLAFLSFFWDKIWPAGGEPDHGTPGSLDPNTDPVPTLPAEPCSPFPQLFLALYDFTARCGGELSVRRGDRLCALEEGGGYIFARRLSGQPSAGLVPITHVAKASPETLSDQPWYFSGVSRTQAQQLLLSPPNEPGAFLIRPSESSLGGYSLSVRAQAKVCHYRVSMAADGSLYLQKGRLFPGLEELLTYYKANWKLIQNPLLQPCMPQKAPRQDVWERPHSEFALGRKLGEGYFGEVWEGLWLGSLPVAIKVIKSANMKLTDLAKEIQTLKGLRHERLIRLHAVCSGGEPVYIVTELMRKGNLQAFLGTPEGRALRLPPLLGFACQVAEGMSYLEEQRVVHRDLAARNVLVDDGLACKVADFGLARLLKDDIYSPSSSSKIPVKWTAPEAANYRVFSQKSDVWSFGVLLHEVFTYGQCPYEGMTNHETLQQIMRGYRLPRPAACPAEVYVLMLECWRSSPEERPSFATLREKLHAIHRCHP
Chain of PRKCE (human) (Q02156 whole entry, looked up): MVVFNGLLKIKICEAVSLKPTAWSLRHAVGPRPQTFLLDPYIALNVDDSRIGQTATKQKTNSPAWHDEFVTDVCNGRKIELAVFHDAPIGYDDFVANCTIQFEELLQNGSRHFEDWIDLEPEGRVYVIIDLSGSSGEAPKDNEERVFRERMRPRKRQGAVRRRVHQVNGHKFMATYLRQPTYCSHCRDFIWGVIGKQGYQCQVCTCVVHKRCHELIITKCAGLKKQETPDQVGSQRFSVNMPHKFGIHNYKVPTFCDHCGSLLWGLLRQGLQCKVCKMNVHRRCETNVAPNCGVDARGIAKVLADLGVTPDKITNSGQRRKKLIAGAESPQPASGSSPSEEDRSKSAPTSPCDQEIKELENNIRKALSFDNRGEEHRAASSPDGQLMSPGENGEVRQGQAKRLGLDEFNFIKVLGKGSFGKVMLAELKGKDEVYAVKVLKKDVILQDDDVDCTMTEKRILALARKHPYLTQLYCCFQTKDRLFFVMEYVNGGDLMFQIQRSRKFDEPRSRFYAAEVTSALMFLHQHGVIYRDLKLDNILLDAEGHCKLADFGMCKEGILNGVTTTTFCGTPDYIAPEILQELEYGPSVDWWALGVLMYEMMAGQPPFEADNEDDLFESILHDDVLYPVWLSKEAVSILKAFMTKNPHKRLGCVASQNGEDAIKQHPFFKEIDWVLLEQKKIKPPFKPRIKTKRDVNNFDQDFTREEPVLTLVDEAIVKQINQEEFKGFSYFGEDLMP
Chain of MAP4K4 (human) (O95819 whole entry, looked up): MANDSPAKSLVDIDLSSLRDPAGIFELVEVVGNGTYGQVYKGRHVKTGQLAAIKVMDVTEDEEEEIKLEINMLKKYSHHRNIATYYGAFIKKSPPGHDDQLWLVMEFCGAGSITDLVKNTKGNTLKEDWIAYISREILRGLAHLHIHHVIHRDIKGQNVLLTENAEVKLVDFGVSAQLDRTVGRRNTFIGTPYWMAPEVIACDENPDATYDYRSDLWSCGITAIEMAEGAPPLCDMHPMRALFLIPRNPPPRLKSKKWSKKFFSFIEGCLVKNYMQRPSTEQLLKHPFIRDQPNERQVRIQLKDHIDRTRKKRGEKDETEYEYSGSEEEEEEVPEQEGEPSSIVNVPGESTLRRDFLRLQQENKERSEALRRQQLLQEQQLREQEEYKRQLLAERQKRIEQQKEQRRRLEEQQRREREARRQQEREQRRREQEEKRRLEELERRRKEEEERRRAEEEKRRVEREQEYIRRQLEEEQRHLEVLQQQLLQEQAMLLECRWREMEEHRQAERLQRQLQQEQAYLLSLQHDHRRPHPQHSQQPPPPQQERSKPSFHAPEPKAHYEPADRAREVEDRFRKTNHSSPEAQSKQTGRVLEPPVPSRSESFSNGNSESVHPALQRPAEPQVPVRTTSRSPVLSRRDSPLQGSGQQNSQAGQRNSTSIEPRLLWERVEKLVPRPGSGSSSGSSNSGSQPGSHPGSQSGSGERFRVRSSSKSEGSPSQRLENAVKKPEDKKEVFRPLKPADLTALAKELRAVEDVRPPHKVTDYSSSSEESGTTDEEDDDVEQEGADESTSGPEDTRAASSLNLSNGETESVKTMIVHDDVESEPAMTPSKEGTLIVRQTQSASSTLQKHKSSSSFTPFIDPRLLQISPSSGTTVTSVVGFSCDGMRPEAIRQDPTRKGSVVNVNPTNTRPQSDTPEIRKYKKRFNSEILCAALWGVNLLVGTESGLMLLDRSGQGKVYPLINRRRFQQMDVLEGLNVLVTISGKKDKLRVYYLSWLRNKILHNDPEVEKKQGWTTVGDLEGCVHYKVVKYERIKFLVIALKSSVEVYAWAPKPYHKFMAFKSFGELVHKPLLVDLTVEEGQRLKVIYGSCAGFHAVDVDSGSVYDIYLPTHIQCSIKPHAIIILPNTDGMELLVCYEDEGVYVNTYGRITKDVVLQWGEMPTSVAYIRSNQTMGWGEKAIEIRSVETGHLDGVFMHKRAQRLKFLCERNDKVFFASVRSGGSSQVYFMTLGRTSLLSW
Chain of WEE2 (human) (P0C1S8 whole entry, looked up): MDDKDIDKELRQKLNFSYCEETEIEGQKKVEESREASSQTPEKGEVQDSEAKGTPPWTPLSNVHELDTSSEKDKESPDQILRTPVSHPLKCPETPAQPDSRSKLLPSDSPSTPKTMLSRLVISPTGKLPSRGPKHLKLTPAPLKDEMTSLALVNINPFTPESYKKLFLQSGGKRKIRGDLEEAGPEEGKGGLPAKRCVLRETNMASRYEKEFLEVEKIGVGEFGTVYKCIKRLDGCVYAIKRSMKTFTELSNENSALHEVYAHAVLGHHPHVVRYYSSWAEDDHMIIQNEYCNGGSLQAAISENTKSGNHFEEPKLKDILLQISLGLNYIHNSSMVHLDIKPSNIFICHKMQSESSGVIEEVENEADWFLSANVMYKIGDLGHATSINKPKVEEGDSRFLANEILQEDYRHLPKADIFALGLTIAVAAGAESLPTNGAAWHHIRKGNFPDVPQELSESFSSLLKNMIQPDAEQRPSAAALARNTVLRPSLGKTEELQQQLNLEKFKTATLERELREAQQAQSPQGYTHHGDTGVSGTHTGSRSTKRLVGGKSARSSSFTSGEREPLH
Chain of PAK7 (human) (Q9P286 whole entry, looked up): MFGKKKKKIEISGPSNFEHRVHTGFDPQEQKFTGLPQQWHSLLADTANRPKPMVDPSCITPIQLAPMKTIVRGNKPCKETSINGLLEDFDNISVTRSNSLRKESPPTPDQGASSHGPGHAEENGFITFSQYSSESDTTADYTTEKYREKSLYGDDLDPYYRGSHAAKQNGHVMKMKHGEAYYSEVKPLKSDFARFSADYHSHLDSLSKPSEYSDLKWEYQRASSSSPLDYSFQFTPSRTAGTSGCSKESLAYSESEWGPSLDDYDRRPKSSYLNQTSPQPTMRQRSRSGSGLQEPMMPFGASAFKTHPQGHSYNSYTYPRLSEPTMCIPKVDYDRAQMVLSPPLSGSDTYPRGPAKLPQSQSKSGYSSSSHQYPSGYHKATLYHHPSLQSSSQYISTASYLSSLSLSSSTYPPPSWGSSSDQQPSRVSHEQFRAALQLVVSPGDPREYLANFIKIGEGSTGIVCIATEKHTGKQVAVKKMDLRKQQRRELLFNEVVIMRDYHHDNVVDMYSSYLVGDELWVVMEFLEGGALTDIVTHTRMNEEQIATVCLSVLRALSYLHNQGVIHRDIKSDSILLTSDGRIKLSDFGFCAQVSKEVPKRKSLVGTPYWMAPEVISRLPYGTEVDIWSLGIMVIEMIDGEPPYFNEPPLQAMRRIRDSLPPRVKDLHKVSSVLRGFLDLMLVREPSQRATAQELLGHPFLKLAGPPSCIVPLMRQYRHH
Chain of MAP2K2 (human) (P36507 whole entry, looked up): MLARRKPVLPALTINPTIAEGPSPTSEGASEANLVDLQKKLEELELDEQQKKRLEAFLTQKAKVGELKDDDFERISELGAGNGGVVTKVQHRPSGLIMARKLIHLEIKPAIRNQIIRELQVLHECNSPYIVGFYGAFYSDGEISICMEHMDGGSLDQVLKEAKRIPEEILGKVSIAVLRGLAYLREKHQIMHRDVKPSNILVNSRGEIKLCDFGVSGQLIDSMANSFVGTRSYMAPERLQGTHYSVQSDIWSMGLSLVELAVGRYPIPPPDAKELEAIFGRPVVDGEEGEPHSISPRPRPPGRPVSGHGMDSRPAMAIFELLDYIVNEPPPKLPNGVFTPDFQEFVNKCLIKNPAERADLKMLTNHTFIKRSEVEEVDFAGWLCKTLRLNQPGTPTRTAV
Chain of PRKX (human) (P51817 whole entry, looked up): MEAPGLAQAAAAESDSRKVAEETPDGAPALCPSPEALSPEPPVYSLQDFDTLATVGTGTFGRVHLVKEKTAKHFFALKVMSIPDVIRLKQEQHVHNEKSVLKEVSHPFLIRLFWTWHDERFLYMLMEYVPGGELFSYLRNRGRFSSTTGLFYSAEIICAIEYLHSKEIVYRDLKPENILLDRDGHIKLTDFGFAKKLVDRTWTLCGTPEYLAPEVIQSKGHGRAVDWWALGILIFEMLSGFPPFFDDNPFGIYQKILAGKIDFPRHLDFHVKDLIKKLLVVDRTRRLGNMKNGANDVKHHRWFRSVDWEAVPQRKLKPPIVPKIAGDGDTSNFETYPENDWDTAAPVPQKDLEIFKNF

SMILES | kinase still bound, per cent of control (ABL2 (human)) [%] | kinase still bound, per cent of control (AXL (human)) [%] | kinase still bound, per cent of control (BLK (human)) [%] | kinase still bound, per cent of control (BRSK2 (human)) [%] | kinase still bound, per cent of control (CDK9 (human)) [%] | kinase still bound, per cent of control (CIT (human)) [%] | kinase still bound, per cent of control (CLK3 (human)) [%] | kinase still bound, per cent of control (CSNK1G2 (human)) [%] | kinase still bound, per cent of control (EPHA3 (human)) [%] | kinase still bound, per cent of control (ERBB2 (human)) [%] | kinase still bound, per cent of control (GAK (human)) [%] | kinase still bound, per cent of control (HCK (human)) [%] | kinase still bound, per cent of control (INSRR (human)) [%] | kinase still bound, per cent of control (MAP2K2 (human)) [%] | kinase still bound, per cent of control (MAP4K4 (human)) [%] | kinase still bound, per cent of control (MAP4K5 (human)) [%] | kinase still bound, per cent of control (MAPK9 (human)) [%] | kinase still bound, per cent of control (MINK1 (human)) [%] | kinase still bound, per cent of control (MYLK4 (human)) [%] | kinase still bound, per cent of control (NTRK3 (human)) [%] | other results
O=C(NOC[C@H](O)CO)c1ccc(F)c(F)c1Nc1ccc(I)cc1F | 90 | 83 | 83 | 100 | 76 | 100 | 100 | 95 | 100 | 100 | 71 | 100 | 81 | 0.2 | 69 | 69 | 88 | 94 | 100 | 93 | kinase still bound, per cent of control (BMPR1B (human)): 81%; kinase still bound, per cent of control (IRAK3 (human)): 100%; kinase still bound, per cent of control (PAK7 (human)): 100%; kinase still bound, per cent of control (PKN1 (human)): 100%; kinase still bound, per cent of control (PRKCE (human)): 100%; kinase still bound, per cent of control (PRKCQ (human)): 100%; kinase still bound, per cent of control (PRKD3 (human)): 70%; kinase still bound, per cent of control (PRKG2 (human)): 86%; kinase still bound, per cent of control (PRKX (human)): 100%; kinase still bound, per cent of control (RPS6KA3 KD1 (human)): 100%; kinase still bound, per cent of control (SRC (human)): 69%; kinase still bound, per cent of control (SRMS (human)): 95%; kinase still bound, per cent of control (SRPK2 (human)): 100%; kinase still bound, per cent of control (STK17B (human)): 100%; kinase still bound, per cent of control (STK24 (human)): 88%; kinase still bound, per cent of control (STK33 (human)): 79%; kinase still bound, per cent of control (TEC (human)): 100%; kinase still bound, per cent of control (WEE2 (human)): 77%; kinase still bound, per cent of control (YES1 (human)): 73%
CCC(=O)N1CCN(c2ccc(-n3c(=O)ccc4cnc5ccc(-c6cnc7ccccc7c6)cc5c43)cc2C(F)(F)F)CC1 | 99 | 46 | 75 | 76 | 94 | 59 | 43 | 100 | 70 | 91 | 57 | 77 | 100 | 100 | 5.2 | 8.1 | 40 | 19 | 83 | 100 | kinase still bound, per cent of control [1]: 100%; kinase still bound, per cent of control (IRAK3 (human)): 27%; kinase still bound, per cent of control (PAK7 (human)): 87%; kinase still bound, per cent of control (PKN1 (human)): 92%; kinase still bound, per cent of control (PRKCE (human)): 86%; kinase still bound, per cent of control (PRKCQ (human)): 91%; kinase still bound, per cent of control (PRKD3 (human)): 100%; kinase still bound, per cent of control (PRKG2 (human)): 78%; kinase still bound, per cent of control (PRKX (human)): 83%; kinase still bound, per cent of control (RPS6KA3 KD1 (human)): 38%; kinase still bound, per cent of control (SRC (human)): 95%; kinase still bound, per cent of control (SRMS (human)): 92%; kinase still bound, per cent of control (SRPK2 (human)): 100%; kinase still bound, per cent of control (STK17B (human)): 67%; kinase still bound, per cent of control (STK24 (human)): 100%; kinase still bound, per cent of control (STK33 (human)): 90%; kinase still bound, per cent of control (TEC (human)): 99%; kinase still bound, per cent of control (WEE2 (human)): 100%; kinase still bound, per cent of control (YES1 (human)): 74%
CCCS(=O)(=O)Nc1ccc(F)c(C(=O)c2c[nH]c3ncc(-c4ccc(Cl)cc4)cc23)c1F | 32 | 8.4 | 2.2 | 100 | 100 | 30 | 92 | 88 | 44 | 100 | 84 | 13 | 73 | 5.4 | 48 | 6.4 | 50 | 38 | 0.45 | 65 | kinase still bound, per cent of control [1]: 55%; kinase still bound, per cent of control (BMPR1B (human)): 67%; kinase still bound, per cent of control (PAK7 (human)): 78%; kinase still bound, per cent of control (PKN1 (human)): 78%; kinase still bound, per cent of control (PRKCE (human)): 87%; kinase still bound, per cent of control (PRKCQ (human)): 43%; kinase still bound, per cent of control (PRKD3 (human)): 44%; kinase still bound, per cent of control (PRKX (human)): 100%; kinase still bound, per cent of control (RPS6KA3 KD1 (human)): 76%; kinase still bound, per cent of control (SRC (human)): 3.4%; kinase still bound, per cent of control (SRMS (human)): 0.05%; kinase still bound, per cent of control (SRPK2 (human)): 100%; kinase still bound, per cent of control (STK17B (human)): 88%; kinase still bound, per cent of control (STK24 (human)): 77%; kinase still bound, per cent of control (STK33 (human)): 94%; kinase still bound, per cent of control (TEC (human)): 100%; kinase still bound, per cent of control (WEE2 (human)): 100%; kinase still bound, per cent of control (YES1 (human)): 18%
OCCCNc1cc(-c2ccnc(Nc3cccc(Cl)c3)n2)ccn1 | 100 | 100 | 100 | 100 | 10 | 100 | 100 | 100 | 100 | 100 | 100 | 100 | 100 | 100 | 100 | 100 | 100 | 100 | 100 | 100 | kinase still bound, per cent of control [1]: 100%; kinase still bound, per cent of control (BMPR1B (human)): 100%; kinase still bound, per cent of control (IRAK3 (human)): 100%; kinase still bound, per cent of control (PAK7 (human)): 100%; kinase still bound, per cent of control (PKN1 (human)): 100%; kinase still bound, per cent of control (PRKCE (human)): 100%; kinase still bound, per cent of control (PRKCQ (human)): 100%; kinase still bound, per cent of control (PRKD3 (human)): 100%; kinase still bound, per cent of control (PRKG2 (human)): 100%; kinase still bound, per cent of control (PRKX (human)): 100%; kinase still bound, per cent of control (RPS6KA3 KD1 (human)): 100%; kinase still bound, per cent of control (SRC (human)): 100%; kinase still bound, per cent of control (SRMS (human)): 100%; kinase still bound, per cent of control (SRPK2 (human)): 100%; kinase still bound, per cent of control (STK17B (human)): 100%; kinase still bound, per cent of control (STK24 (human)): 100%; kinase still bound, per cent of control (TEC (human)): 100%; kinase still bound, per cent of control (WEE2 (human)): 100%; kinase still bound, per cent of control (YES1 (human)): 100%
